How the values were obtained:
[1] = test system: extracellular domains of the LMP1 protein; experiment: Immunogenic potency of LMP1 antigens: serum antibodies by ELISA after immunization; type: in vivo, EBV; settings: mice immunized with LMP1-derived peptide coupled to KLH or lipid
Description: (§1) The LMP1-derived peptides containing only one exogenous cystein (SEQ ID Nos 10, 11, 12, 15, 16) were individually coupled to activated KLH (Imject maleimide-activated KLH®, Perbio) according to the supplier's protocol. Mice (4 animals per group) were injected subcutaneously in the flank, with an emulsion of peptide (50 μg in 0.1 ml H20) and of complete Freund's adjuvant (0.1 ml). On days 21, 42 and 62 following the first injection (D0), the animals are given a boost injection, by the same route, with the same amount of antigen but in incomplete Freund's adjuvant. […]
(§2) Blood samples are taken, by retro-orbital puncture, from the immunized mice, and the sera are then recovered and frozen at −20° C. in 20-μl fractions. […] The reaction is stopped by adding 4N sulfuric acid, and the absorption at 492 nm is measured using an automatic microplate reader (Dynatech).
Antibodies directed against the extracellular domains of the EBV LMP1 protein were prepared by immunization of mice with the peptides SEQ ID Nos 10 and 11 coupled to KLH, or else with the peptide SEQ ID No. 13 coupled to cholesterol, as described in example 1. The kinetics of appearance of the serum antibodies directed against the extracellular domains of the LMP1 protein were analyzed by ELISA, as described in example 1.

[2] = test system: extracellular domains of the LMP2A protein; experiment: Immunogenic potency of the LMP2A antigens in mice and rats (ELISA); type: in vivo, EBV; settings: comparison of LMP2A peptides SEQ ID Nos 15, 16, 17
Description: as §1, §2
Antibodies directed against the extracellular domains of the LMP2A proteins were prepared by immunization of batches of 4 BALB/c mice or of batches of 3 LOU/M rats with the peptides SEQ ID Nos 15, 16 and 17 coupled to activated KLH as described in example 1. The response in terms of antibodies directed against the extracellular domains of the LMP2A protein was analyzed by ELISA, as described in example 1.

| Substance | Immunogenic Potency [1] | humoral response [2] |
| --- | --- | --- |
| SEQ ID No: 14: LMP1-(ED1 + ED2 + ED3) with linking residues between domains (MSDWTGGALCLWNLHGQALCLYLQQNWWT; Epstein Barr Virus) | +(IgM) |  |
| TWRIEDPPFNSLCVDAVLQLSPL [SEQ ID No. 16] |  | best humoral response |

From patent US7803378B2, “Antigen imitating extracellular areas of membrane proteins of type III produced from intracellular pathogenic micro-organisms, derived conformational antibodies and the use thereof” (priority 2003, dated 2010)
